Data published in US11505815B2, “Compositions and methods related to non-templated enzymatic nucleic acid synthesis” (Nuclera Nucleics Ltd., priority 2017, dated 2022).

What was measured:
[1] = Deamination time course in sodium nitrite / sodium acetate pH 5.5, analysed by LC-MS; format: physicochemical; details: sodium nitrite (700 mM), pH 5.5 (1 M), room temperature; for Extent of deamination (conversion to oxidative deamination product): LC chromatograms at 260 nm
[2] = test system: engineered terminal deoxynucleotidyl transferase; test: Enzymatic incorporation of nucleoside 5′-triphosphates with amine-masking moieties onto a DNA primer (denaturing PAGE); format: biochemical; details: 10 minutes at 37° C., buffer containing cobalt chloride, DNA primer with 5′-fluorophore
Description: FIG. 11: Enzymatic incorporation of nucleoside 5′-triphosphates with amine-masking moieties. An engineered terminal deoxynucleotidyl transferase was incubated for 10 minutes at 37° C. in an appropriate buffer containing cobalt chloride and a DNA primer with a 5′-fluorophore as well as the following nucleoside 5′-triphosphates: (A) Lane 1: No extension control; Lane 2: N6-benzyl-dATP; Lane 3: N6-benzyl-rATP; Lane 4: N6-methyl-dATP; Lane 5: N6-methyl-rATP; (B) Lane 1: No extension control; Lane 2: 3′-O-acetyl-N4-benzoyl-dCTP; (C) Lane 1: No extension control; Lane 3: N6-benzoyl-dATP; Lane 4: N4-benzoyl-dCTP. Reactions were analyzed by standard denaturing polyacrylamide gel electrophoresis (TBE buffer) and imaged with a fluorescent scanner.

Row | Compound | Deacetylation during incubation with nitrite solution ([1]; 48 hours) | Extent of deamination (conversion to oxidative deamination product) [1] | Acceptance as substrate by terminal transferase enzyme in a DNA synthesis process [2]
1 | CC(=O)Nc1ncnc2c1ncn2[C@@H]1O[C@H](CO)[C@@H](O)[C@H]1O [N6-acetyl A, N6-acetyl adenosine] | minor deacetylation | no deamination product is detected | 
2 | CC(C)=CCNc1ncnc2nc[nH]c12 [N6-dimethylallylamino purine] |  | notable absence of peaks corresponding to dA or dI | 
3 | O=C(Nc1ccn([C@H]2C[C@H](O)[C@@H](COP(=O)(O)OP(=O)(O)OP(=O)(O)O)O2)c(=O)n1)c1ccccc1 [N4-benzoyl 2′-deoxycytidine triphosphate] |  |  | accepted as a substrate

Other lines, results leading:

Row | Deacetylation during incubation with nitrite solution ([1]; 48 hours) | Extent of deamination (conversion to oxidative deamination product) [1] | Acceptance as substrate by terminal transferase enzyme in a DNA synthesis process [2] | Compound
4 |  | occur at an appreciable rate |  | Nc1nc2nc[nH]c2c(=O)[nH]1 [guanine, reference compound]
5 |  | occur at an appreciable rate |  | Nc1ncnc2nc[nH]c12 [adenine, reference compound]
6 |  | occur at an appreciable rate |  | Nc1cc[nH]c(=O)n1 [cytosine, reference compound]
